Experiment [1] concerns the target Lysophosphatidic acid receptor 2 (Homo sapiens) (UniProt Q9HBW0). Kind of experiment: Antagonist activity at human LPA2 receptor expressed in HEK293 cells assessed as inhibition of LPA-induced AP-TGF-alpha release treated 5 mins before LPA addition measured after 60 mins. The experiment is classed as functional, cell-based.
In another experiment the test system is PC-3. Kind of experiment: Antagonist activity at LPA receptor in human PC3 cells assessed as inhibition of LPA-induced cell migration. It counts as functional, cell-based.

Activity calls are given as the source filed them. The rule behind the calls is not given here.

Lysophosphatidic acid receptor 2 (Homo sapiens), sequence (Q9HBW0 whole entry): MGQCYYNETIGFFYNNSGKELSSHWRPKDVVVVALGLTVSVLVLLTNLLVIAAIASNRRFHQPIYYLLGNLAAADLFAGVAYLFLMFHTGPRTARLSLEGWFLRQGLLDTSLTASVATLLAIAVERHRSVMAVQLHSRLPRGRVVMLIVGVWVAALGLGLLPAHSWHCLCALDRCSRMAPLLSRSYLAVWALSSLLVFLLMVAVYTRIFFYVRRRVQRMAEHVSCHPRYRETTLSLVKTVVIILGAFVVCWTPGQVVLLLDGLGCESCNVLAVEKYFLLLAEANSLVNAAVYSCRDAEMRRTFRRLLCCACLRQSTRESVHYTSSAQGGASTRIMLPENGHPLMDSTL

Turning to `Cc1noc(-c2ccc(CSCCC(=O)O)cc2)c1NC(=O)O[C@@H](C)c1ccccc1Cl`, the inhibition entry (in experiment [1]; with PC-3) was “Active” throughout.

Consider `Cc1noc(-c2ccc(CSCCC(=O)O)cc2)c1NC(=O)O[C@H](C)c1ccccc1Cl`, for which the inhibition entry (in experiment [1]; in the experiment with PC-3) was “Active” each time.

For the compound `Cc1noc(-c2ccc(CSCCC(=O)O)cc2)c1NC(=O)OC(C)c1ccccc1Cl` (racemic), the inhibition result (in experiment [1]; with PC-3) was “Active” each time.
